Holding throughout (experiment): NCI tumour cell line growth inhibition, 48 h
The test system of test [1] is HCT-15 colon.
The test system of test [2] is A498 renal.
Test [3] concerns OVCAR-5 ovarian.
For test [4], the system named is MDA-MB-435.
For test [5], the system named is HT29 colon.
The subject of test [6] is HOP-62 NSCLC.
Test [7] relates to SR leukemia.
The test system of test [8] is HCT-116 colon.
Test [9] has as its system MOLT-4 leukemia.
The test system of test [10] is SK-MEL-2 melanoma.

Where “and” joins values, the source holds several entries; their conditions need not be identical. Equal values may be shown once.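 Compound exposure: 48 hours, 5 concentrations, 96-well plates. GI50 = concentration required for 50% inhibition of growth. TGI is the concentration that stops growth completely.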

For the compound `N#Cc1c(-c2ccccc2)cc(-c2ccc(Cl)cc2)[nH]c1=S`, the TGI in [1] is > 100 µM; in [2], 63.5 µM; in test [3], > 100 µM; in test [4], 43.1 µM; in test [5], > 100 µM; in test [6] it was > 100 µM. The TGI in test [7], in test [8] and in test [9] was > 100 µM throughout.
On to `Cc1c2c(OCC3CCCCO3)nn(C)c(=O)c2c(C)n1-c1ccccc1` (centres undefined), for which the TGI in [1] stood at 33.4 µM; in [10], 39.4 µM; in test [2] it was 28.3 µM; in [3], 35.9 µM; in test [4], 37.4 µM; in test [5] it was 91.4 µM. The TGI in [6] was 38 µM; in [8] it was 31.6 µM; in test [9], > 100 µM.
Turning to `N#Cc1nc(NC(=O)c2ccccc2C(=O)O)c(C#N)[nH]1`, the TGI in test [10], in test [2], in [3], in test [4], in test [5] and in test [6] was > 100 µM throughout. The TGI in test [8] and in [9] was > 100 µM each time.
Turning to `CCCSc1nc(-c2ccc(OC)cc2)c(C#N)c(=O)n1C1OC(COC(C)=O)C(OC(C)=O)C(OC(C)=O)C1OC(C)=O` (centres undefined), the TGI in test [10] was > 100 µM; in test [2], > 100 µM and 78.2 µM; in [3] it was > 100 µM and 48.8 µM; in [5] it was > 100 µM; in test [6], > 100 µM; in test [7], > 100 µM. Also, the TGI in test [8] and in test [9] was > 100 µM each time. Also, the GI50 in test [2] is 20.9 µM; in [3] it was > 100 µM and 21.2 µM; in test [6], > 100 µM and 30.1 µM; in [8], > 100 µM.
Take `NS(=O)(=O)c1cccc(NC(=S)NC(=O)Nc2ccc(Cl)c(Cl)c2)c1`: the TGI in test [1] was 33.6 µM; in test [10], 40.2 µM; in test [2], 26.3 µM; in [3], 84 µM; in test [5], 86.6 µM; in [6] it was 30.9 µM. Also, the TGI is 31.4 µM in [8] and 37.6 µM in test [9].
In the case of `O=C(N/N=C/c1ccc(Br)cc1)N/N=C/c1ccc(Br)cc1`, the TGI in test [1] is > 100 µM; in test [10], > 100 µM; in test [3] it was 95.8 µM; in test [4], 76 µM; in test [5], 26 µM; in test [6] it was 17.5 µM. Further, the TGI in [7] was 17.7 µM; in [8], > 100 µM; in test [9], 30.2 µM.
`CCCCn1c(-c2ccc([N+](=O)[O-])cc2)cs/c1=N/N=C1\C(=O)Nc2ccc(Br)cc21`: the TGI is > 100 µM in [1]; 34.3 µM in test [2]; > 100 µM in test [3]; 37.3 µM in test [4]; 33.1 µM in test [5]; 37.9 µM in [6]. The TGI in test [8] was found to be 29.3 µM; in [9], 46.5 µM.
In the case of `CC(=O)OC1C(COC(=O)c2ccccc2)OC(Nc2ncc(-c3ccc(Br)cc3)s2)C(OC(=O)c2ccccc2)C1OC(=O)c1ccccc1` (centres undefined), the TGI in [10] is 35.3 µM; in test [3], > 100 µM; in [4] it was > 100 µM; in test [5] it was > 100 µM; in test [6] it was > 100 µM; in [7], > 100 µM. For the same compound, the TGI in [8] and in test [9] was > 100 µM throughout.
`CCOP(=O)(/C=C\n1ccc(N)nc1=O)OCC`: the TGI in [1], in test [10], in test [3], in test [4], in [5] and in test [6] was > 100 µM each time. Besides, the TGI in [8] and in test [9] was > 100 µM each time.
For `COc1ccc(-c2cc(-c3ccccc3)[nH]c(=S)c2C#N)cc1`, the TGI is > 100 µM in test [1]; 60.2 µM in test [2]; > 100 µM in test [3]; 42.8 µM in [4]; > 100 µM in [5]; 24.2 µM in test [6]. Further, the TGI in test [7], in test [8] and in test [9] was > 100 µM in each case.
Consider `CN(C)CCC(=O)/C=C\c1ccccc1`, for which the TGI was 30.9 µM in test [1]; 39.5 µM in test [2]; 35.7 µM in test [3]; 39.2 µM in test [5]; > 100 µM in [6]; 35.1 µM in test [7]. Further, the values for the TGI in test [8] and in [9] were 28.7 µM and 33.1 µM, respectively.
Regarding `O=c1[nH]nc(Cc2ccccc2)n1/N=C/c1ccncc1`, the TGI in [1], in [2], in test [3], in test [4], in test [5] and in test [6] was > 100 µM throughout. Also, the TGI in [7], in test [8] and in test [9] was > 100 µM in each case.
As to `COc1cc2c(c(O)c1OC)C(=O)C(Cc1ccc(O)cc1)CO2` (centres undefined), the TGI was > 100 µM in [1]; > 100 µM in test [10]; > 100 µM in [3]; 7.24 µM in [4]; > 100 µM in test [5]; > 100 µM in [6]. Also, the TGI in test [7], in test [8] and in [9] was > 100 µM each time.
Consider `Cn1c2ccccc2c(=O)c2c(O)cc3c(c21)C=CC1(CCCCC1)O3`, for which the TGI in test [1], in [10], in [2], in test [3], in test [4] and in test [5] was > 10 µM in each case. Also, the TGI in test [6], in [8] and in test [9] was > 10 µM in each case.
Turning to `CCOC(=O)C1CCC(=O)N1C(=O)c1ccccc1` (centres undefined), the TGI in test [1], in test [2], in test [3], in test [4], in test [5] and in [6] was > 100 µM throughout. Also, the TGI in [7], in test [8] and in test [9] was > 100 µM each time.
As for `COC1CC(OC2CCC3(C)C(=CCC4C3C(OC(C)=O)C(OC(=O)CC(C)C)C3(C)C(C(C)=O)CCC43O)C2)OC(C)C1OC1CC(OC)C(OC2CC(OC)C(OC3OC(C)C(OC4OC(CO)C(O)C(O)C4O)C(OC)C3O)C(C)O2)C(C)O1` (centres undefined), the TGI in test [1], in [10], in test [2], in test [3], in test [4] and in [5] was > 75 µM in each case. Besides, the TGI in test [6], in test [8] and in test [9] was > 75 µM throughout.
`C\C(=N/N=C1/C(=C\N(C)C)C(=O)NC(=O)N1C)c1ccc(Cl)cc1`: the TGI in test [1], in test [10], in test [2], in [3], in [4] and in test [5] was > 100 µM each time. For the same compound, the TGI in test [6], in test [8] and in test [9] was > 100 µM throughout.
Take `CN(C)CCNC(=O)c1cccc2nc(-c3ccccc3)oc12`: the TGI in test [1] is > 100 µM; in test [10], > 100 µM; in test [2] it was > 94.3 µM; in test [3], > 100 µM; in test [5] it was > 100 µM; in [6] it was > 100 µM. Further, the figures for the TGI in test [8] and in [9] were > 100 µM and > 89.5 µM, respectively.
Consider `O=C(C(Cl)=C(N1CCOCC1)N1CCOCC1)C(Cl)Cl`, for which the TGI in test [1], in [2], in [4], in test [5], in test [6] and in [7] was > 100 µM in each case. In addition, the TGI in test [8] and in test [9] was > 100 µM each time.
Turning to `CC(=O)OC(Cn1cncn1)(Cn1cncn1)c1ccc(Cl)cc1Cl`, the TGI in test [1], in test [10], in [2], in test [3], in test [4] and in test [5] was > 100 µM in each case. Moreover, the TGI in test [6] and in [9] was > 100 µM each time.
On to `CCON1CC(C(=O)OC)=C(O)C1=O`, for which the TGI in [1], in test [10], in test [2], in test [3], in test [4] and in test [5] was > 100 µM each time. Moreover, the TGI in test [6], in [8] and in test [9] was > 100 µM in each case.
As for `Cc1ccc(C2=CC(=O)/C(=C\C(=O)c3ccc(Cl)cc3)O2)cc1`, the TGI in test [1] was 35.3 µM; in test [2] it was 71.8 µM; in test [3], 40.6 µM; in test [4], 32.2 µM; in test [5], 15.1 µM; in test [6], > 100 µM. Also, the TGI is 6.1 µM in [7], 27.8 µM in [8] and > 100 µM in test [9].
Turning to `CC(=O)OCc1c(O)c2c(c(O)c1COC(C)=O)C(=O)C=CC2=O`, the TGI came to 38.1 µM in test [1]; 8.84 µM in [10]; 34.7 µM in [2]; 30.9 µM in test [3]; 31.6 µM in [5]; 37.4 µM in [6]. The TGI is > 100 µM in test [7], 25.6 µM in [8] and 15.1 µM in [9].
Consider `CCOC(=O)/C(O)=C1\C(=O)N(C)C(=O)C1c1cccc(OC)c1` (centres undefined), for which the TGI in [1], in test [10], in [2], in test [3], in test [5] and in [6] was > 100 µM throughout. The TGI in test [8] and in test [9] was > 100 µM throughout.
In the case of `COC(=O)C1=Nc2c(C)nn(-c3ccccc3)c2N=C(c2ccccc2)C1`, the TGI in test [1], in test [3], in test [4], in [5], in [6] and in test [7] was > 10 µM each time. In addition, the TGI in test [8] and in test [9] was > 10 µM throughout.
Consider `CCOC(=O)c1nnsc1NN`, for which the TGI in test [1], in [10], in test [3], in test [4], in test [5] and in test [6] was > 100 µM each time. For the same compound, the TGI in test [8] and in test [9] was > 100 µM in each case.
For `O=C(Nc1noc(-c2ccccc2)n1)c1ccccc1CNc1noc(-c2ccccc2)n1`, the TGI in [1], in test [2], in [3], in test [4], in [5] and in test [6] was > 100 µM each time. For the same compound, the TGI in [7], in test [8] and in [9] was > 100 µM throughout.
`O=c1[nH]c(=O)n(C2CC(O)C(CO)O2)cc1OCc1ccccc1` (centres undefined): the TGI in test [1], in [3], in [4], in [5], in test [6] and in test [7] was > 100 µM in each case. The TGI in test [8] and in test [9] was > 100 µM each time.
In the case of `CNC(=O)CCCNC(=O)CCCC(=O)N(C)C`, the TGI in [1], in test [10], in [2], in [3], in test [4] and in [5] was > 100 µM each time. Besides, the TGI in test [6], in test [8] and in [9] was > 100 µM in each case.
Turning to `COC(=O)[C@H](Cc1ccccc1)NC(=O)CCCCCCC(=O)NO`, the TGI was > 100 µM in [1]; 23.8 µM in [10]; 43.9 µM in test [3]; 63.8 µM in [4]; > 100 µM in [5]; > 100 µM in test [7]. The results for the TGI in test [8] and in [9] were 27 µM and > 100 µM, respectively.

Source of the values: PubChem BioAssay (NCI).
